Common to all, as to assay: growth of human tumour cells (NCI), 48 h
In assay [1] the test system is SF-295 CNS.
Assay [2] concerns HCT-116 colon.
The subject of assay [3] is NCI-H23 lung.
Assay [4] relates to HCC-2998 colon.
For assay [5], the system named is RXF 393 renal.
Assay [6] deals with KM12 colon.
In assay [7] the test system is IGROV1 ovarian.
Assay [8] relates to OVCAR-3 ovarian.
For assay [9], the system named is K-562 leukemia.

Molecules are shown by their SMILES.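 Values below derive from 48-hour exposures of cells grown in 96-well plates, with endpoints linearly interpolated between the two concentrations bracketing the appropriate inhibition level. GI50 marks 50% less growth. TGI marks complete inhibition of growth.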

Our source for the TGI and GI50 values is PubChem BioAssay (NCI).

`Cc1cc(C)c2c(c1)CSCc1cc(C)cc(C)c1-2`: the TGI in [1] was 68.3 µM; in assay [2] it was 60.5 µM; in [3] it was greater than 100 µM; in assay [4], greater than 100 µM; in [5] it was 65.3 µM; in assay [6], greater than 100 µM. In addition, the TGI in assay [7], in assay [8] and in assay [9] was greater than 100 µM throughout.

With `[O-]c1ccccc1C=NCCN=Cc1ccccc1[O-].[O]=[U+2]=[O]`, the GI50 in assay [1] was 28.7 µM; in assay [2], 46.2 µM; in assay [3], 22.6 µM; in assay [4] it was 27.9 µM; in assay [5], 24.1 µM; in assay [6], 57.1 µM. Also, the figures for the GI50 in assay [7], in assay [8] and in [9] were 26.1 µM, 24.5 µM and greater than 79.5 µM, respectively. Also, the TGI is greater than 72.3 µM in assay [1]; greater than 100 µM in assay [2]; 61.1 µM in assay [3]; 83.6 µM in assay [4]; 48.5 µM in assay [5]; greater than 100 µM in assay [6]. Besides, the TGI in [7] is 61.6 µM; in [8], 95.3 µM; in [9], greater than 100 µM.

For the compound `CCOc1ccc2c(c1)[n+]([O-])c(C(N)=O)c(N)[n+]2[O-]`, the TGI in [1], in [2], in [3], in [5], in assay [6] and in [7] was greater than 100 µM each time. Further, the TGI in assay [8] and in assay [9] was greater than 100 µM each time.

For the compound `CCN(CC)C(=O)c1cccc2c(OC)ccc(OC)c12`, the TGI in assay [1], in assay [2], in assay [3], in [4], in assay [5] and in assay [6] was greater than 100 µM throughout. Besides, the TGI in assay [7], in assay [8] and in assay [9] was greater than 100 µM throughout.

For the compound `CC1=NC2(C(=O)O)C3(C(=O)O)N=C(C)OC3(C(F)(F)F)C2(C(F)(F)F)O1` (stereo not drawn), the TGI in [1], in assay [2], in assay [3], in [4], in assay [5] and in assay [6] was greater than 100 µM each time. In addition, the TGI in [7], in assay [8] and in assay [9] was greater than 100 µM each time.

For `O=c1[nH]c(=O)n(Cc2ccc(C34CC5CC(CC(C5)C3)C4)c(O)c2)cc1F`, the GI50 in [1] is 9.62 µM; in assay [2], 13.3 µM; in assay [3] it was 12.5 µM; in assay [4], 14.5 µM; in assay [5], 5.28 µM; in assay [6], 12.1 µM. Also, the GI50 was 3.74 µM in [8] and 3.49 µM in [9]. The TGI in assay [1] is 27.2 µM; in assay [2], 28.5 µM; in assay [3], 27.2 µM; in assay [4], 28.1 µM; in assay [5] it was 18.3 µM; in [6], 28.5 µM. For the same compound, the TGI in assay [8] came to 17.8 µM; in [9], 18.2 µM.

Turning to `O=C1C2C3SC(c4cc5ccccc5cc43)C2C(=O)N1c1ccccc1` (stereo not drawn), the TGI in [1] is greater than 100 µM; in assay [2], greater than 100 µM; in assay [3], greater than 100 µM; in assay [4] it was greater than 100 µM; in assay [5] it was 94.3 µM; in assay [6] it was greater than 100 µM. Besides, the TGI in assay [7], in assay [8] and in assay [9] was greater than 100 µM in each case.

In the case of `NCCNCCNCc1c2ccccc2c(CNCCNCCN)c2ccccc12`, the TGI in assay [1], in [2], in assay [3], in assay [4], in [5] and in [6] was greater than 100 µM in each case. Besides, the TGI in assay [7], in assay [8] and in assay [9] was greater than 100 µM each time.

Take `CCOc1ccc2c(c1)[n+]([O-])c(-c1ccccc1)c(N)[n+]2[O-]`: the TGI in assay [1] is greater than 100 µM; in assay [3], 91.3 µM; in [4] it was greater than 100 µM; in [6], greater than 100 µM; in assay [7] it was greater than 100 µM; in assay [8], greater than 100 µM. Also, the TGI in [9] was greater than 100 µM.

For `O=S1(=O)[C@H](c2ccccc2)c2c(-c3ccccc3)sc(-c3ccccc3)c2[C@@H]1c1ccccc1`, the TGI in assay [1], in assay [3], in assay [4], in [5], in [6] and in assay [7] was greater than 100 µM in each case. The TGI in assay [8] and in assay [9] was greater than 100 µM in each case.

On to `O=C(O)c1ccccc1NS(=O)(=O)c1ccc(Cl)cc1`, for which the TGI in [2], in [3], in assay [4], in [5], in [7] and in assay [9] was greater than 100 µM each time.

`CCOP(=O)(OCC)C(C(=O)OC)C(=O)C(=O)Nc1cccc([N+](=O)[O-])c1` (stereo not drawn): the TGI in assay [1], in assay [2], in assay [3], in assay [4], in [5] and in assay [6] was greater than 100 µM throughout. Further, the TGI in assay [7], in assay [8] and in assay [9] was greater than 100 µM in each case.

For the compound `CC1COS(=O)N1c1ccccc1` (stereo not drawn), the TGI in assay [1], in [3], in [4], in assay [5], in [6] and in assay [7] was greater than 100 µM throughout. For the same compound, the TGI in assay [9] is greater than 100 µM.

Take `O=C1CN=C(c2ccccc2)c2ccncc2N1`: the TGI in assay [1] was greater than 100 µM; in [2] it was greater than 100 µM; in assay [3] it was greater than 100 µM; in assay [4], greater than 100 µM; in [5] it was greater than 100 µM; in [6], 37 µM. Also, the TGI in [7], in [8] and in assay [9] was greater than 100 µM each time.
